Assay [1] concerns Kit (hair depigmentation). Set-up: method as in PMID 12966161. Particulars: mice; cited from earlier work.
In another assay the test system is Kit. The arrangement: method as in PMID 16951187. Particulars: biochemical assays; read-out: IC50, inhibition of Kit activity; cited from earlier work.
The subject of assay [2] is Ba/F3 cells stably transfected with KIT Y823D. As to the kind of experiment: cells. Particulars: Mus musculus, BaF3, 24 h, read-out: IC50 of Stably Transfected Ba/F3 Cell Survival. The procedure:
(§1) The ability of Kit mutants to act as survival factors was assessed in Kit-dependent Ba/F3 cells. Ba/F3 cells stably transfected with various KIT mutants were seeded in a 96-well tissue culture plate at a density of 5 × 10^3 cells per well. […] Cell viability was assessed by measuring the level of adenosine triphosphate using ATPlite assays (PerkinElmer Life Sciences, Boston, MA). Reconstituted ATPLite 1-step solution was added to each well followed by incubation with shaking for 2 minutes. The plate was read on a Victor Model 1420 multilabel counter (PerkinElmer Inc.) under the luminescence setting.

The subject of assay [3] is Ba/F3 cells stably transfected with KIT V560D. Nature of the assay: cells. Particulars: Mus musculus, BaF3, 24 h, read-out: IC50 of Stably Transfected Ba/F3 Cell Survival. On the procedure:
as §1

Assay [4] deals with Ba/F3 cells stably transfected with KIT Δ552-559. Nature of the assay: cells. Particulars: Mus musculus, BaF3, 24 h, read-out: IC50 of Stably Transfected Ba/F3 Cell Survival. The procedure: as §1
In assay [5] the test system is Ba/F3 cells stably transfected with KIT AYins503-504. Nature of the assay: cells. Particulars: Mus musculus, BaF3, 24 h, read-out: IC50 of Stably Transfected Ba/F3 Cell Survival. On the procedure: as §1
In assay [6] the test system is Ba/F3 cells stably transfected with KIT V560D/T670I. Nature of the assay: cells. Particulars: Mus musculus, BaF3, 24 h, read-out: IC50 of Stably Transfected Ba/F3 Cell Survival. The procedure:
as §1

For assay [7], the system named is Ba/F3 cells stably transfected with KIT V560D/V654A. As to the kind of experiment: cells. Particulars: Mus musculus, BaF3, 24 h, read-out: IC50 of Stably Transfected Ba/F3 Cell Survival. The procedure: as §1
A further assay has as its target T1, Kit V560D/V654A mutant (Homo sapiens, UniProt P10721, V560D/V654A).
T1 construct: human wild-type KIT to yield full-length, mutant constructs; expressed in transfected cells; host or cells: AM-1/D CHO cells, stably transfected
Nature of the assay: Cell-based Kit autophosphorylation assay, V560D/V654A mutant. Particulars: autophosphorylation IC50 […] nM versus […] nM. The procedure: (§2) CHO cells stably transfected with wild-type or mutant isoforms of KIT were seeded in a 96-well tissue culture plate at a density of 2 × 10^4 cells per well. For stem cell factor (SCF) characterization experiments, cells were stimulated with serial dilutions of SCF for varying times. […] Cell lines transfected with activating KIT mutants were not stimulated with SCF in IC50 experiments. Cells were washed with phosphate-buffered saline and lysed in RIPA buffer (50 mM Tris, pH 7; 150 mM NaCl, 1% Igepal, 0.5% sodium deoxycholate, 0.1% SDS, 300 μM activated sodium vanadate, 1× protease inhibitor cocktail) for 30 minutes at 4°C with shaking. Cell lysates were added to a 96-well DELFIA microplate (PerkinElmer Inc.) coated with anti-Kit antibody (1 μg per well; AF332, R&D Systems, Inc.; Minneapolis, MN) and incubated for 2 hours. Lysates were then removed and the plate was washed 3 times with DELFIA wash buffer (PerkinElmer Inc.). […] The plate was then washed 3 times with DELFIA wash buffer before 0.01 μg of Eu-N1-labeled anti-mouse antibody (Cat. # AD0124, PerkinElmer Inc.) was added to each well. The plate was again incubated at room temperature for 1 hour and then washed 3 times with DELFIA wash buffer before the signal was detected by adding DELFIA enhancement buffer (PerkinElmer Inc.) to each well.

The subject of assay [8] is Kit activity (hair depigmentation). As to the kind of experiment: In vivo hair depigmentation assay (surrogate marker of Kit activity). Particulars: female C57B6 mice. On the procedure: Female C57B6 mice (6 to 8 weeks old; 20 to 30 g; Charles River Laboratories, Wilmington, MA) were anesthetized, and an area of skin 2 × 2 cm on the right flank was depilated. […] On day 21, photographs were taken for assessment of hair depigmentation. The same patch of skin was depilated again on day 28, and photographs for assessment of depigmentation were taken on day 35. All animal experimental procedures were conducted in accordance with the guidelines of the Amgen Animal Care and Use Committee and the Association for Assessment and Accreditation of Laboratory Animal Care standards.

A further assay addresses T2, Kit D816V mutant (Homo sapiens, UniProt P10721, D816V).
T2 construct: human wild-type KIT to yield full-length, mutant constructs; expressed in transfected cells; host or cells: AM-1/D CHO cells, stably transfected
As to the kind of experiment: Cell-based Kit autophosphorylation assay, D816V mutant. Particulars: stably transfected CHO cells, up to 3000 nM. On the procedure:
as §2

Another assay concerns PDGFR. Set-up: method as in PMID 16951187. Particulars: biochemical assays; read-out: IC50, inhibition of PDGFR activity; cited from earlier work.

Results on two molecules are retold here after publication PMC2912835 (Journal of Experimental & Clinical Cancer Research : CR, 2010).

On to `CCN(CC)CCNC(=O)c1c(C)[nH]c(/C=C2\C(=O)Nc3ccc(F)cc32)c1C` [sunitinib], for which the Hair depigmentation result in [1] is given as “Depigmentation has previously been observed”.

For the molecule `CC1(C)CNc2cc(NC(=O)c3cccnc3NCc3ccncc3)ccc21` [Motesanib], the IC50 in the assay with Kit was […]; in assay [2] it was 62 nM; in [3], 3 nM; in assay [4], 0.4 nM; in [5], 11 nM; in assay [6] it was 180 nM. Besides, the IC50 in assay [7] was 91 nM; with PDGFR, 84 nM. Further, at Kit V560D/V654A mutant, the “Loss of activity, V560D/V654A double mutant compared with V560D alone” value is listed as “fifteen-fold loss”. For the same molecule, the “Hair depigmentation of regrown hair” value in assay [8] (75 mg/kg oral twice daily for 21 days after depilation, assessed day 21, vs vehicle) is recorded as “markedly depigmented”. For the same molecule, the “Hair depigmentation of regrown hair after cessation of treatment” value in assay [8] (treatment stopped day 21, depilated again day 28, assessed day 35) is on record as “no apparent depigmentation”. For the same molecule, the “Inhibition of autophosphorylation of the D816V mutant” value on Kit D816V mutant is reported as “neither motesanib nor imatinib inhibited”.
